Two compounds from US20040110821A1, “GAL3 receptor antagonists for the treatment of affective disorders” (priority 2002, published 2004) can be followed below.

Read-outs that look alike come from different tables or passages of the source. Marks after values point to notes of the source that are not given here.

In one test the target is T1, human 5HT1A receptor (Homo sapiens, UniProt P08908).
T1 construct: expressed in transfected cells; host or cells: COS-7 cells, transient, vector pCEXV-3
The experiment in a line: Radioligand binding at 5-HT1A receptor. The conditions noted are these: read-out: h5HT1A Ki. How it is done: 5-HT1r Receptor: The cDNA corresponding to the 5-HT1A receptor open reading frames and variable non-coding 5′- and 3′-regions, was cloned into the eukaryotic expression vector pCEXV-3. These constructs were transfected transiently into COS-7 cells by the DEAE-dextran method (Cullen, 1987), and harvested after 72 hours. Radioligand binding assays were performed as described above for the 5-HT2A receptor, except that ^3H-8-OH-DPAT was used as the radioligand and nonspecific binding was determined by the addition of 10 μM mianserin.
(§1) Binding data were analyzed using nonlinear regression and statistical techniques available in the GraphPAD Prism package (San Diego, Calif.). Enzymatic assay data were derived from a standard curve of reference compound data.

For another test, the target named is T2, human 5HT2A receptor (Homo sapiens, UniProt P28223).
T2 construct: expressed in transfected cells; host or cells: COS-7 cells, transient, vector pCEXV-3
T2 sequence (P28223 whole entry): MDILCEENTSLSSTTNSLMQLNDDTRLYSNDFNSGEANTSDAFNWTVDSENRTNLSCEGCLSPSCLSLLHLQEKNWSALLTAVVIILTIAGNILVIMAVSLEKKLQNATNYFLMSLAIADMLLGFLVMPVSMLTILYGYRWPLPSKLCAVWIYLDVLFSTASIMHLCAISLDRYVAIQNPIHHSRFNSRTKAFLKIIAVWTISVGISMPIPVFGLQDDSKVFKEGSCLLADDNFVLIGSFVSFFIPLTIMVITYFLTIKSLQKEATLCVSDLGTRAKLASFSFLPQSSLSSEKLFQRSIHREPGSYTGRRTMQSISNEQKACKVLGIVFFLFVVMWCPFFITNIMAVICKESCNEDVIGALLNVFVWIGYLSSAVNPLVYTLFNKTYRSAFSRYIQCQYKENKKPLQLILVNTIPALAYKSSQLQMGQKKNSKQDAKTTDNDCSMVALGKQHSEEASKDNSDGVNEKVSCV
The experiment in a line: Radioligand binding at human 5HT2A receptor. The conditions noted are these: read-out: h5HT2A Ki. The protocol: Human 5HT2; Receptor: The coding sequence of the human 5HT2A receptor was obtained from a human brain cortex cDNA library, and cloned into the cloning site of pCEXV-3 eukaryotic expression vector. This construct was transfected into COS-7 cells by the DEAE-dextran method (Cullen, 1987). Cells were harvested after 72 hours and lysed by sonication in 5 mM Tris-HCl, 5 mM EDTA, pH 7.5. The cell lysates were subjected to centrifugation at 1000 rpm for 5 minutes at 4° C., and the supernatant was subjected to centrifugation at 30,000×g for 20 minutes at 4° C. The pellet was suspended in 50 mM Tris-HCl buffer (pH 7.7 at room temperature) containing 10 mM MgSO4, 0.5 mM EDTA, and 0.1% ascorbate. The affinity of compounds at 5HT2A receptors were determined in equilibrium competition binding assays using [^3H]ketanserin (1 nM). Nonspecific binding was defined by the addition of 10 μM mianserin. The bound radioligand was separated by filtration through GF/B filters using a cell harvester.
as §1

For a further test, the target named is T3, human GAL3 receptor (Homo sapiens, UniProt O60755).
T3 construct: expressed in transfected cells
T3 sequence (O60755 1-368): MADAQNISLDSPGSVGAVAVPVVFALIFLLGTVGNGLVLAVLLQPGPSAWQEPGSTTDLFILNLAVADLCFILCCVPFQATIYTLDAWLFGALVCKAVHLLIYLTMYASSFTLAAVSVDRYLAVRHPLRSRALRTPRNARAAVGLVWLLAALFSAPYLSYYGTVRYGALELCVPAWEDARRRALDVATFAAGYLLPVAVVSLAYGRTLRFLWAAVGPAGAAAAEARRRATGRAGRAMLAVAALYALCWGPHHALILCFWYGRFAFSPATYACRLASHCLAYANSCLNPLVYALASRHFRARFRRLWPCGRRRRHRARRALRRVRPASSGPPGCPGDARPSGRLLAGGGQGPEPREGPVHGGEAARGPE
The experiment in a line: Radioligand binding at cloned human GAL3 receptor. The conditions noted are these: for Ki: read-out: hGAL3 Ki. The protocol:
The present invention provides for a method of determining the binding affinity of a GAL3 antagonist, wherein the GAL3 antagonist is dissolved in a “suitable solvent”. A “suitable solvent” means one which permits the measurement of binding affinity of the GAL3 antagonist to the human GAL3 receptor at concentrations less than 1 μM, preferably less than 100 nM. Examples of solvents include, but are not limited to, DMSO, ethanol, N,N-dimethylacetamide, or water. For indolones, the preferred solvent is 3% DMSO (final concentration in the assay). For pyrimidines, the preferred solvent is 1% ethanol/0.09% polypuronic acid F-127 (final concentration in the assay). For any other type of compounds, the preferred solvent is the solvent which permits the measurement of binding affinity of a GAL3 antagonist at the lowest concentration. Once a suitable solvent is ascertained for the binding assay of the human GAL3 receptor, the same solvent is used in assays to determine the binding affinity for instance, at the GAL1 receptor.
The binding properties of the pyrimidines of the present invention were evaluated at the cloned human galanin receptors, GAL1, GAL2, and GAL3, using protocols described herein.
The binding properties of the indolones of the present invention were evaluated at the cloned human galanin receptors, GAL1, GAL2, and GAL3, using protocols described herein.
LM(tk-) cells were stably transfected with the human GAL1 or GAL3 receptor. CHO cells were stably transfected with the human GAL2 receptor.
cDNAs for the human and rat GAL1, and human and rat GAL3 receptors were transfected with a G-418 resistant gene into the mouse fibroblast LM(tk-) cell line by a calcium phosphate transfection method (Cullen, 1967). Stably transfected cells were selected with G-418. Human and rat GAL2 receptors were similarly transfected into CHO cells.
Membranes were harvested from stably transfected LM(tk-) cells. Adherent cells were washed twice in ice-cold phosphate buffered saline (138 mM NaCl, 8.1 mM Na2HPO4, 2.5 mM KCl, 1.2 mM KH2PO4, 0.9 mM CaCl2, 0.5 mM MgCl2, pH 7.4) and lysed by sonication in ice-cold sonication buffer (20 mM Tris-HCl, 5 mM EDTA, pH 7.7). Large particles and debris were cleared by low speed centrifugation (200×g, 5 min, 4° C.). Membranes were collected from the supernatant fraction by centrifugation (32,000×g, 18 min, 4° C.), washed with ice-cold hypotonic buffer, and collected again by centrifugation (32,000×g, 18 min, 4° C.). The final membrane pellet was resuspended by sonication into a small volume of ice-cold binding buffer (−1 ml for every 5 plates: 10 mM NaCl, 20 mM HEPES, 0.22 mM KH2PO4, 1.26 mM CaCl2, 0.81 mM MgSO4, pH 7.4). Protein concentration was measured by the Bradford method (Bradford, 1976) using Bio-Rad Reagent, with bovine serum albumin as a standard. Membranes were held on ice for up to one hour and used fresh, or flash frozen and stored in liquid nitrogen. Membranes were prepared similarly from CHO cells.
Galanin Receptors: Binding assays were performed according to the following published methods: human GAL3 (PCT International Publication No. WO 98/15570), human GAL1 (PCT International Publication No. WO 95/2260) human GAL2 (PCT International Publication No. WO 97/26853).
as §1

The next test concerns Male Sprague-Dawley rats. The experiment in a line: Rat Forced Swim Test (FST). The format is in vivo. The conditions noted are these: for overall profile in the Forced Swim Test (conclusion in words): rat, in vivo.
The mark [1] stands for this setting: 0.3 mg/kg p.o., single administration 1 hr before 5 min test.
Where [2] appears, read: 0.3 mg/kg p.o., single administration 1 hr before 5 min test, listed as EX34.
Setting [3] is: 1 mg/kg p.o., single administration 1 hr before 5 min test.
Where [4] appears, read: 1 mg/kg p.o., single administration 1 hr before 5 min test, listed as EX34.
[5] abbreviates: 3 mg/kg p.o., single administration 1 hr before 5 min test.
Setting [6] is: 3 mg/kg p.o., single administration 1 hr before 5 min test, listed as EX34.
Where [7] appears, read: 10 mg/kg p.o., single administration 1 hr before 5 min test.
The mark [8] stands for this setting: 10 mg/kg p.o., single administration 1 hr before 5 min test, listed as EX34.
[9] abbreviates: 1 mg/kg i.p., single injection 1 h before 5 min test.
Where [10] appears, read: 3 mg/kg i.p., single injection 1 h before 5 min test.
The mark [11] stands for this setting: 10 mg/kg i.p., single injection 1 h before 5 min test.

T1 sequence (P08908 whole entry): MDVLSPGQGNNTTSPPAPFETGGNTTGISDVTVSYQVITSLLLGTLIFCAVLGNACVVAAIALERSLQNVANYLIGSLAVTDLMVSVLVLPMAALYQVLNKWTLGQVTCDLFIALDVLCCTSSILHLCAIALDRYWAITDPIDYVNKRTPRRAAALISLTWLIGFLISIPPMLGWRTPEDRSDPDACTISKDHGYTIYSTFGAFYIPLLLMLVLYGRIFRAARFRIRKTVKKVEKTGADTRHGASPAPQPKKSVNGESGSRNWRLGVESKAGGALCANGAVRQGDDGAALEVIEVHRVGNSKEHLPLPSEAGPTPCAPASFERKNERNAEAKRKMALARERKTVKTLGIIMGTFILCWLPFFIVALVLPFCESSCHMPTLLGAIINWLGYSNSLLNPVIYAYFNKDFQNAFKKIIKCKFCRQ

Broadly, the Ki is the dissociation constant of the complex between target and ligand, obtained from inhibition or displacement. `Cc1ccc(Nc2cc(N3CCCCC3)nc(N3CCN(c4ncccc4C(F)(F)F)CC3)n2)cc1` [Example 34]: the inhibitory constant (Ki) on human 5HT1A receptor and at human 5HT2A receptor was greater than 50 µM throughout. Moreover, on human GAL3 receptor, the “GAL3/GAL1 binding ratio (Ki GAL1 divided by Ki GAL3)” value is 39. Besides, the Climbing in the test with Male Sprague-Dawley rats (setting [1]) is recorded as 3.3 ± 0.7 counts; with Male Sprague-Dawley rats (setting [3]) it was “significant increase in climbing”; with Male Sprague-Dawley rats (setting [4]) it was 5.0 ± 0.8^c counts; with Male Sprague-Dawley rats (setting [5]), 4.3 ± 0.8 counts; in the test on Male Sprague-Dawley rats (setting [7]), “did not significantly alter swimming or climbing”; in the test on Male Sprague-Dawley rats (setting [8]), 2.0 ± 0.4 counts. Moreover, the Diving entry with Male Sprague-Dawley rats (setting [1]) is on record as “not significantly altered”; in the test on Male Sprague-Dawley rats (setting [2]), 0.2 ± 0.1 counts; in the test with Male Sprague-Dawley rats (setting [3]), “not significantly altered”; with Male Sprague-Dawley rats (setting [4]), 0.3 ± 0.2 counts; in the test on Male Sprague-Dawley rats (setting [5]), “not significantly altered”; in the test on Male Sprague-Dawley rats (setting [6]), 0.3 ± 0.3 counts. The Diving entry with Male Sprague-Dawley rats (setting [7]) is recorded as “not significantly altered”; with Male Sprague-Dawley rats (setting [8]), 0.4 ± 0.3 counts. Further, the Immobility entry with Male Sprague-Dawley rats (setting [1]) is reported as “significantly decreased immobility”; in the test with Male Sprague-Dawley rats (setting [2]), 45 ± 1.5^a counts; in the test with Male Sprague-Dawley rats (setting [3]) it was “significantly decreased immobility”; in the test with Male Sprague-Dawley rats (setting [4]), 35 ± 1.9^b counts; in the test with Male Sprague-Dawley rats (setting [5]), “significantly decreased immobility”; in the test with Male Sprague-Dawley rats (setting [6]), 35 ± 2.0^b counts. The Immobility result in the test on Male Sprague-Dawley rats (setting [7]) was “did not significantly decrease in immobility”; with Male Sprague-Dawley rats (setting [8]), 49 ± 1.4 counts. Besides, the Swimming result in the test with Male Sprague-Dawley rats (setting [1]) is given as “significant increase in swimming behavior”; with Male Sprague-Dawley rats (setting [2]), 11.6 ± 0.9^d counts; in the test on Male Sprague-Dawley rats (setting [3]), “significant increase in swimming behavior”; with Male Sprague-Dawley rats (setting [4]), 19.6 ± 1.3^d,e counts; with Male Sprague-Dawley rats (setting [5]), “significant increase in swimming behavior”; in the test with Male Sprague-Dawley rats (setting [6]), 20.8 ± 1.3^d,e counts. The Swimming entry is on record as “did not significantly alter swimming or climbing” with Male Sprague-Dawley rats (setting [7]) and 8.2 ± 1.2 counts with Male Sprague-Dawley rats (setting [8]). For the same compound, in the test on Male Sprague-Dawley rats, the “overall profile in the Forced Swim Test (conclusion in words)” value is on record as “produces an effect in the FST that resembles that of antidepressants”.
On to `O=C1C(=Nc2cccc(C(F)(F)F)c2)c2ccccc2N1c1ccccc1` [Example 92, 1-PHENYL-3-[[3-(TRIFLUOROMETHYL)PHENYL]IMINO]-1,3-DIHYDRO-2H-INDOL-2-ONE], for which the inhibition constant Ki on human 5HT1A receptor is greater than 50 µM; on human 5HT2A receptor it was greater than 50 µM; on human GAL3 receptor (Table 7) it was 0.038 µM; on human GAL3 receptor (Table 9), 0.038 µM. The Diving is given as 0.6±0.2 counts in the test with Male Sprague-Dawley rats (setting [9]); 0.6±0.3 counts with Male Sprague-Dawley rats (setting [10]); 0.5±0.5 counts in the test with Male Sprague-Dawley rats (setting [11]); 0.2±0.2 counts with Male Sprague-Dawley rats (30 mg/kg i.p., single injection 1 h before 5 min test). Also, the Immobility in the test on Male Sprague-Dawley rats (setting [9]) stood at 28 ± 1.0 counts. For the same compound, the figures for the Swimming with Male Sprague-Dawley rats (setting [9]), with Male Sprague-Dawley rats (setting [10]) and with Male Sprague-Dawley rats (setting [11]) were 20±1.1 counts, 21±0.9 counts and 18±0.9 counts, respectively. The “overall profile in the Forced Swim Test (conclusion in words)” value in the test with Male Sprague-Dawley rats was “has antidepressant-like properties”.
